Data on 20 compounds can be found in patent US20250388605A1, “HETEROBIFUNCTIONAL COMPOUNDS AND METHODS OF TREATING DISEASE” (Halda Therapeutics OpCo, Inc., priority 2022, published 2025).

Each structure is given as a SMILES string. A value given as a limit tells only on which side of the number the result lay.

Assay [1] relates to T-Rex 293 cell line SC cells having increased expression of progesterone receptor isoform B protein. The assay is described as follows: Cellular growth inhibition assay, T-Rex 293 SC cells exposed to doxycycline (increased progesterone receptor isoform B expression), CellTiter-Glo. It counts as cell-based. The conditions noted are these: T-Rex 293 SC cells with 10 ng/mL doxycycline (increased PR isoform B), 72 hours.

The test system of assay [2] is T-Rex 293 cell line SC cells lacking increased expression of progesterone receptor isoform B protein. Put plainly: Cellular growth inhibition assay, T-Rex 293 SC cells not exposed to doxycycline (no increased progesterone receptor isoform B expression), CellTiter-Glo. The assay is classed as cell-based. The conditions noted are these: T-Rex 293 SC cells without doxycycline (no increased PR isoform B), 72 hours. A general note: In ATP-based viability assays light output follows the ATP content of the culture.

The target of assay [3] is T1, progesterone receptor ligand binding domain (GST-tagged PR LBD) (Homo sapiens, UniProt P06401).
T1 construct: purchased Life Technologies A15905 or a15906
T1 sequence (P06401 679-913 limits assumed): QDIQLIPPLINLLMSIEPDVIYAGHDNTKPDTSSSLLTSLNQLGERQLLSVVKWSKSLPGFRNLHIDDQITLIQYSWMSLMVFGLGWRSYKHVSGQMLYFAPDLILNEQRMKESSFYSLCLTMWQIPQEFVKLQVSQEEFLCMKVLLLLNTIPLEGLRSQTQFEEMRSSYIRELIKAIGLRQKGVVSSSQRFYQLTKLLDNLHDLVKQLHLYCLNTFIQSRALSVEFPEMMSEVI
The assay is described as follows: FP Assay for Binding Affinity to Progesterone Receptor (PolarScreen Progesterone Receptor Competitor Assay Kit). The following applies: fluorescence polarization, Fluormone tracer, 2 hours at room temperature. The gist of the method:
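Fluorescence polarization competition: GST-tagged human PR LBD, Fluormone tracer and compound incubated 2 h at room temperature in the dark. mP plotted against compound concentration; IC50 from four-parameter non-linear fit.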
In general terms: In fluorescence polarisation assays a small probe gives low polarisation when free and higher when bound to something large.

Regarding `Cn1cc(-c2cc(C(C)(C)O)ccc2Oc2ccc(OCC3CCN(c4ncc(C(=O)N[C@H]5C(C)(C)[C@H](Oc6ccc(C#N)c(Cl)c6)C5(C)C)cn4)CC3)cc2)c2cc[nH]c2c1=O` [Compound I-202], the GI50 (in general, the concentration giving 50% growth inhibition) in assay [1] was below 500 nM; in assay [2] it was 500 to 1500 nM. Further, the IC50 – broadly, the point on the concentration scale where inhibition reaches its midpoint – in assay [3] is above 2500 nM.

`CC(C)N(C1CCN(c2ncc(C(=O)N[C@H]3C(C)(C)[C@H](Oc4ccc(C#N)c(Cl)c4)C3(C)C)cn2)CC1)C1CN(c2cccc(Oc3ccc(C(C)(C)O)cc3-c3cn(C)c(=O)c4[nH]ccc34)c2F)C1` [Compound I-221]: the GI50 was below 500 nM in assay [1] and 1500 to 3000 nM in assay [2]. In assay [3], the IC50 fell in the range of 50 to 500 nM.

As for `CCS(=O)(=O)Nc1ccc(Oc2cccc(N3CC4(CN(CC5CCN(c6ncc(C(=O)N[C@H]7C(C)(C)[C@H](Oc8ccc(C#N)c(Cl)c8)C7(C)C)cn6)CC5)C4)C3)c2)c(-c2cn(C)c(=O)c3[nH]ccc23)c1` [Compound I-35, N-((1r, 3r)-3-(3-chloro-4-cyanophenoxy)-2,2,4,4-tetramethylcyclobutyl)-2-(4-((6-(3-(4-(ethylsulfonamido)-2-(6-methyl-7-oxo-6,7-dihydro-1H-pyrrolo[2,3-c]pyridin-4-yl)phenoxy)phenyl)-2,6-diazaspiro[3.3]heptan-2-yl)methyl)piperidin-1-yl)pyrimidine-5-carboxamide], the values for the GI50 in assay [1] and in assay [2] were below 500 nM and above 3000 nM, respectively. The IC50 in assay [3] fell in the range of 500 to 2500 nM.

Take `CCS(=O)(=O)Nc1ccc(Oc2cccc(OC3CC(C4CCN(c5ncc(C(=O)N[C@H]6C(C)(C)[C@H](Oc7ccc(C#N)c(Cl)c7)C6(C)C)cn5)CC4)C3)c2)c(-c2cn(C)c(=O)c3[nH]ccc23)c1` (some centres unmarked) [Compound I-104]: the figures for the GI50 in assay [1] and in assay [2] were below 500 nM and above 3000 nM, respectively. In addition, in assay [3], the IC50 was above 2500 nM.

Take `CN(C1CCN(c2ncc(C(=O)N[C@H]3C(C)(C)[C@H](Oc4ccc(C#N)c(Cl)c4)C3(C)C)cn2)CC1)C1CN(c2ccc(Oc3ccc(C(C)(C)O)cc3-c3cn(C)c(=O)c4[nH]ccc34)cc2)C1` [Compound I-208]: the GI50 in assay [1] and in assay [2] was below 500 nM throughout. The same compound yielded an IC50 in assay [3] of 50 to 500 nM.

On to `CN(CC1CCN(c2ncc(C(=O)N[C@H]3C(C)(C)[C@H](Oc4ccc(C#N)c(Cl)c4)C3(C)C)cn2)CC1)C1(c2ccc(Oc3ccc(C(C)(C)O)cc3-c3cn(C)c(=O)c4[nH]ccc34)cc2)COC1` [Compound I-255], for which the GI50 in assay [1] was below 500 nM; in assay [2] it was 1500 to 3000 nM. In addition, the IC50 in assay [3] lay within 50 to 500 nM.

As to `Cn1cc(-c2cc(C(C)(C)O)ccc2Oc2ccc(OCCN3CCN(c4ncc(C(=O)N[C@H]5C(C)(C)[C@H](Oc6ccc(C#N)c(Cl)c6)C5(C)C)cn4)CC3)cc2)c2cc[nH]c2c1=O` [Compound I-204], the GI50 in assay [1] was below 500 nM; in assay [2] it was 500 to 1500 nM. In addition, the IC50 in assay [3] was in the range of 50 to 500 nM.

Turning to `Cn1cc(-c2cc(C(C)(C)O)ccc2Oc2ccc(CCC3CCN(c4ncc(C(=O)N[C@H]5C(C)(C)[C@H](Oc6ccc(C#N)c(Cl)c6)C5(C)C)cn4)CC3)cc2)c2cc[nH]c2c1=O` [Compound I-203], the GI50 in assay [1] was below 500 nM; in assay [2], above 3000 nM. The compound further yielded an IC50 in assay [3] above 2500 nM.

As to `Cn1cc(-c2cc(C(C)(C)O)ccc2Oc2ccc(CC3CCN(c4ncc(C(=O)N[C@H]5C(C)(C)[C@H](Oc6ccc(C#N)c(Cl)c6)C5(C)C)cn4)CC3)cc2)c2cc[nH]c2c1=O` [Compound I-201], the GI50 in assay [1] was below 500 nM; in assay [2] it was 500 to 1500 nM. This compound also displayed an IC50 in assay [3] above 2500 nM.

Turning to `Cn1cc(-c2cc(C(C)(C)O)ccc2Oc2ccc(N3CC(OC4CCN(c5ncc(C(=O)N[C@H]6C(C)(C)[C@H](Oc7ccc(C#N)c(Cl)c7)C6(C)C)cn5)CC4)C3)cc2)c2cc[nH]c2c1=O` [Compound I-219], the GI50 was below 500 nM in assay [1] and above 3000 nM in assay [2]. Besides, the IC50 in assay [3] lay within 50 to 500 nM.

With `CCS(=O)(=O)Nc1ccc(Oc2cccc(OC3CCC4(CC3)CCN(c3ncc(C(=O)N[C@H]5C(C)(C)[C@H](Oc6ccc(C#N)c(Cl)c6)C5(C)C)cn3)CC4)c2)c(-c2cn(C)c(=O)c3[nH]ccc23)c1` [Compound I-45], the GI50 is below 500 nM in assay [1] and above 3000 nM in assay [2]. The IC50 in assay [3] is above 2500 nM.

As to `Cn1cc(-c2cc(C(C)(C)O)ccc2Oc2ccc(CCCC3CC4(C3)CN(c3ncc(C(=O)N[C@H]5C(C)(C)[C@H](Oc6ccc(C#N)c(Cl)c6)C5(C)C)cn3)C4)cc2)c2cc[nH]c2c1=O` [Compound I-268], the GI50 in assay [1] and in assay [2] was below 500 nM each time. The compound also showed a 50% inhibitory concentration (IC50) in assay [3] of 50 to 500 nM.

`CN(C1CN(c2ccc(Oc3ccc(C(C)(C)O)cc3-c3cn(C)c(=O)c4[nH]ccc34)cc2)C1)C1CN(c2ncc(C(=O)N[C@H]3C(C)(C)[C@H](Oc4ccc(C#N)c(Cl)c4)C3(C)C)cn2)C1` [Compound I-238]: the GI50 in assay [1] and in assay [2] was below 500 nM throughout. In assay [3], the IC50 was in the range of 50 to 500 nM.

`CCS(=O)(=O)c1ccc(Oc2ccc(OCC3CCN(c4ncc5c(n4)CN([C@H]4C(C)(C)[C@H](Cc6ccc(C#N)c(Cl)c6)C4(C)C)C5=O)CC3)cc2)c(-c2cn(C)c(=O)c3[nH]ccc23)c1` [Compound I-220]: the GI50 in assay [1] and in assay [2] was below 500 nM each time. In addition, the IC50 in assay [3] lay in the range of 50 to 500 nM.

Regarding `Cn1cc(-c2cc(C(C)(C)O)ccc2Oc2ccc(N3CC(CC4CN(c5ncc(C(=O)N[C@H]6C(C)(C)[C@H](Oc7ccc(C#N)c(Cl)c7)C6(C)C)cn5)C4)C3)cc2)c2cc[nH]c2c1=O` [Compound I-280], the GI50 in assay [1] and in assay [2] was below 500 nM throughout. Besides, the IC50 in assay [3] lay in the range of 50 to 500 nM.

As to `CCS(=O)(=O)c1ccc(Oc2cccc(OCCN3CCN(c4ncc5c(n4)CN([C@H]4C(C)(C)[C@H](Oc6ccc(C#N)c(Cl)c6)C4(C)C)C5=O)CC3)c2F)c(-c2cn(C)c(=O)c3[nH]ccc23)c1` [Compound I-217], the IC50 in assay [3] is below 50 nM.

As for `Cn1cc(-c2cc(C(C)(C)O)ccc2Oc2cccc(N3CC4(CN(c5ncc(C(=O)N[C@H]6C(C)(C)[C@H](Oc7ccc(C#N)c(Cl)c7)C6(C)C)cn5)CCO4)C3)c2F)c2cc[nH]c2c1=O` [Compound I-216], in assay [3], the IC50 is 50 to 500 nM.

Consider `Cn1cc(-c2cc(C(C)(C)O)ccc2Oc2ccc(N3CC(CN4CC5CC4CN5c4ncc(C(=O)N[C@H]5C(C)(C)[C@H](Oc6ccc(C#N)c(Cl)c6)C5(C)C)cn4)C3)cc2)c2cc[nH]c2c1=O` (some centres unmarked) [Compound I-228], for which the GI50 in assay [1] and in assay [2] was below 500 nM in each case. For the same compound, the IC50 in assay [3] is 50 to 500 nM.

With `CCS(=O)(=O)Nc1ccc(Oc2ccc(OCC3CCN(c4ncc(C(=O)N[C@H]5C(C)(C)[C@H](Oc6ccc(C#N)c(Cl)c6)C5(C)C)cn4)CC3)cc2)c(-c2cn(C)c(=O)c3[nH]ccc23)c1` [Compound I-138], the GI50 in assay [1] and in assay [2] was below 500 nM throughout. Moreover, the IC50 in assay [3] is above 2500 nM.

For `Cn1cc(-c2cc(C(C)(C)O)ccc2Oc2ccc(N3CC(CC4CCN(c5ncc(C(=O)N[C@H]6C(C)(C)[C@H](Oc7ccc(C#N)c(Cl)c7)C6(C)C)cn5)CC4)C3)cc2)c2cc[nH]c2c1=O` [Compound I-232], the GI50 is below 500 nM in assay [1] and 500 to 1500 nM in assay [2]. The same compound yielded an IC50 in assay [3] of 500 to 2500 nM.
